Data from PubChem BioAssay (NCI).
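Interpolation was linear, between the two tested concentrations surrounding the appropriate level; five concentrations were tested over 48 hours in 96-well plates. At the GI50, growth is halved. The concentration for full growth arrest is given as TGI.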

Assays:
Assay in all cases: DTP human tumour cell line panel, 48 h
NCI-H226 lung = system: NCI-H226 lung
SF-268 CNS = system: SF-268 CNS
UO-31 renal = system: UO-31 renal
OVCAR-5 ovarian = system: OVCAR-5 ovarian
NCI-H23 lung = system: NCI-H23 lung
MALME-3M melanoma = system: MALME-3M melanoma
SR leukemia = system: SR leukemia

| SMILES | TGI (NCI-H226 lung) [µM] | TGI (SF-268 CNS) [µM] | TGI (UO-31 renal) [µM] | TGI (OVCAR-5 ovarian) [µM] | TGI (NCI-H23 lung) [µM] | TGI (MALME-3M melanoma) [µM] | TGI (SR leukemia) [µM] | GI50 (SF-268 CNS) [µM] | GI50 (UO-31 renal) [µM] | GI50 (OVCAR-5 ovarian) [µM] | GI50 (NCI-H23 lung) [µM] | GI50 (MALME-3M melanoma) [µM] |
| --- | --- | --- | --- | --- | --- | --- | --- | --- | --- | --- | --- | --- |
| Cc1ccc(NC(=O)CCC(CC(=O)C(C)(C)C)=NNC(=O)C(=O)NN)cc1C | > 100 | > 100 | > 100 | > 100 | > 100 | > 100 |  |  |  |  |  |  |
| Cc1[nH]c2ccccc2c1C1Cc2ccccc2N1C(=O)/C=C/C=C/c1ccccc1 (stereo not given) | > 100 |  | > 100 | > 100 | > 100 | > 100 | > 100 |  |  |  |  |  |
| COC(=O)/C=C1/CCC2[C@@H](C(=O)CC3[C@]2(C)CCC[C@@]3(C)C(=O)OC)C1C (stereo not given in full) | 46.1 | 38.6 | 37.5 | 39.4 | 31.6 | 34.8 |  |  |  |  |  |  |
| CC(=O)OC(/C=C1/C=CC(=O)O1)COC(=O)c1ccccc1 (stereo not given) | > 31.2 | > 31.2 | > 31.2 | > 31.2 | > 31.2 | > 31.2 |  |  |  |  |  |  |
| C/C(=C\C(C)COCc1ccccc1)[C@H](COCc1ccccc1)OCc1ccccc1 (stereo not given in full) | > 100 | > 100 | > 100 | > 100 | > 100 |  |  |  |  |  |  |  |
| COc1cc(/C=C2/C(=O)N(C(=O)OC(C)C)C(Cc3cc(OC)c(OC)c(C)c3OC)C(=O)N2Cc2ccccc2)c(OC)c(C)c1OC (stereo not given) | 30 | > 100 | > 100 | > 100 | > 100 | > 100 | 51.1 |  |  |  |  |  |
| Cc1cc(O)cc2oc(=O)c3c(O)cc(O)cc3c12 | 91.8 | 76.5 | > 100 | > 100 | 48 | > 100 | > 100 |  |  |  |  |  |
| Cc1ccc(NC(=O)C(=O)C2C(=O)N(c3ccccc3)N=C2N)cc1C (stereo not given) | > 100 | > 100 | > 100 | > 100 | > 100 | > 100 | > 100 |  |  |  |  |  |
| O=c1/c(=C/c2cccc([N+](=O)[O-])c2)sc2nc3ccccc3n12 | > 100 | > 100 | > 100 | > 100 | > 100 | > 100 |  |  |  |  |  |  |
| CCOC12OC3=C(CC1CC1=C(CCC1=O)O2)C(=O)CC3 (stereo not given) | > 100 | > 100 | > 100 | > 100 | > 100 | > 100 | > 100 |  |  |  |  |  |
| CC1=NN(c2ccccc2)C(=O)C1=C1SCCS1 | > 100 | > 100 | > 100 | > 100 | > 100 | > 100 | > 54.4 |  |  |  |  |  |
| CC1(C)COC(C23C4C5C2C2C3C4C52I)=N1 (stereo not given) | > 100 | > 100 | > 100 | > 100 | > 100 | > 100 |  |  |  |  |  |  |
| CCOC(=O)C12CCCC1(O)N(NC(=O)c1ccccc1)C(C)=C2C(=O)OC (stereo not given) | > 100 | > 100 | > 100 | > 100 | > 100 | > 100 |  |  |  |  |  |  |
| CCOC(C)C(/C=N/NC(N)=S)=NNC(N)=S (stereo not given) |  | > 100 | > 77.2 | > 100 | > 100 | > 100 | > 100 |  |  |  |  |  |
| COC(=O)C1=C(O)c2cc(OC)c(OC)c(OC)c2[C@H](c2cc(OC)c(OC)c(OC)c2)C1C(=O)OC (stereo not given in full) | > 100 | > 100 | > 100 | > 100 | > 100 | > 100 |  |  |  |  |  |  |
| COC(=O)C1=C2CCC(=O)[C@@]2(C)C(OC(C)=O)C=CC1 (stereo not given in full) | > 100 |  | > 100 | > 100 | > 100 | > 100 |  |  |  |  |  |  |
| CCOC(=O)/C(O)=C(/c1n[nH]c(=O)c2ccccc12)[N+](=O)[O-] | > 100 | > 100 | > 100 | > 100 | > 100 | > 100 |  |  |  |  |  |  |
| O=c1cccccc1NCCOCCNc1cccccc1=O | > 100 | > 100 | > 100 | > 100 | > 100 | > 100 |  |  |  |  |  |  |
| CCCN(CCCCC(NC(C)=O)C(=O)NCc1ccccc1)C(=O)N(C)N=O (stereo not given) | > 100 | > 100 | > 100 | > 100 | > 100 | > 100 |  |  |  |  |  |  |
| O=S(=O)(/C=C/c1ccc(Cl)cc1Cl)Cc1ccccc1CS(=O)(=O)/C=C/c1ccc(Cl)cc1Cl | > 100 | > 100 | > 100 | > 100 | > 100 |  | > 100 |  |  |  |  |  |
| COc1ccc(C(=O)C(c2ccc(OC)cc2)C2(O)C(=O)Nc3ccccc32)cc1 (stereo not given) | > 100 | > 100 | > 100 |  | > 100 | > 100 | > 100 |  |  |  |  |  |
| CN(C)CCNC(=O)c1cc2ccccc2c2nc3ccccc3nc12 | 2.44 | 2.02 |  | 5.64 | 2.69 | 2.06 | 3.68 |  |  |  |  |  |
| O=S(=O)(O)O.[NH-]C1CCCCC1[NH-].[Pt+2] (stereo not given) |  | > 100 | > 100 | > 100 | > 100 | > 100 |  | > 100 | > 100 | > 100 | > 100 | 50.2 |
